# Data taken from patent US6448034B1, “Production of variant nisin” (priority 1994, dated 2002).
# Marks after values point to notes of the source that are not given here.
# How the values were obtained:
# [1] = system: Lactobacillus helveticus CH-1; conditions: plate diffusion bioassay; plasmid-encoded nisA gene complementing nisA deficiency in host strain FI7332; cited from earlier work
# [2] = system: sensitive L. Lactis strain MG1614; assay: Minimum inhibitory concentration (MIC); type: cell-based; conditions: Table 5
# [3] = system: nisin sensitive L. lactis strain MG1614; conditions: colony overlay assay; plasmid complementation; cited from earlier work
# FI7847 [nisA-(fs)] [4] = assay: Induction by nisin / nisin variants as inducing agent; type: cell-based, L. lactis; parameters: Induction: unit not given here; conditions: strain FI7847
# Experimental: A particularly preferred embodiment of the third aspect of the invention is wherein the cells are cultured in the presence of nisA nisin or a variant nisin which can induce nisin expression. […] By adding sub-inhibitory concentrations of nisin to the growth medium, during fermentation, higher levels of the variant nisin are produced. Any variants that are less efficient as inducing agents benefit from the inclusion of nisin in the growth medium (ie a nisin induction step in the purification procedure). The amount of induction varies depending on the initial induction capacity of any particular variant (with I30W nisin A production more than doubled as a result of induction). Induction may be routinely included in the method as a means of maximising production levels. Any concerns about contamination with the wild type molecule are minimal as the nisin concentration required for induction is negligible compared to the amount of nisin variant being purified. Conveniently, the nisA nisin is a minimum amount that provides maximal induction of nisin production. This amount can be determined empirically by a person skilled in the art. Suitable nisA nisin concentrations for induction in this embodiment are from 1 nM to 500 nM, preferably 10 nM to 250 nM, more preferably 50 nM to 150 nM, most preferably 100 nM.
# In some circumstances it is desirable to add nisA nisin as an inducer.
# [5] = system: sensitive indicator strains; conditions: work described in WO 93/20213; cited from earlier work
# [6] = system: Lactobacillus helveticus CH-1; assay: Plate diffusion bioassay of cell-free extracts / culture supernatants; type: cell-based
# Experimental: 150 μl samples of cell free extracts from strains: 4, FI5876; 5, FI7990; 6, FI8070; 7, FI8198; 8, FI8199 were loaded into wells bored in MRS agar seeded with the indicator strains Lactobacillus helveticus CH-1. Plates were incubated overnight at 42° C. Standards included on the assay plate are: 1,50; 2,100; 3,200; 9,300; 10,400 U/ml.
# (§1) Nisin activity in Lactococcal strains was assayed by both deferred and direct means. Plate diffusion bioassays were performed as previously described (Dodd et al (1992) Appl. Environ. Microbiol. 58, 3683-3693. Colonies growing on the surface of a GM17 plate were directly assayed by inverting over chloroform for 12 minutes and overlaying with agar seeded with the nisin sensitive L. lactis strain MG1614. Plates were incubated overnight and zone sizes around colonies compared with those of controls. Nisin immunity was determined by streaking cultures on a series of GM17 agar plates containing an increasing concentration of nisin and assessing the degree of growth at the different nisin levels. Control cultures (FI5876, positive) and MG1614 (negative) were included on each plate.
# This corresponds to an increase of approximately 50% of nisin A levels, under the conditions used here (Table 1). This higher level of production was not found in the extracts of FI8199, producing the double mutant nisin A/Dha5A,Dha33A. […] In all cases the yield for a particular nisin variant was higher when using this gene replacement strategy than when the equivalent plasmid-encoded gene was employed in a plasmid complementation system (Table 3, Dodd et al (1992) (1993) supra).
# FI7990 (ΔnisA) = assay: Nisin immunity on GM17 agar plates with increasing nisin; type: cell-based, L. lactis; conditions: nisin level tolerated by strain FI7990 ΔnisA
# Experimental: as §1
# (§2) The effect of disruption of the nisA gene on immunity of the host strain to nisin has been described previously (Dodd et al (1992) supra). […] The nisA deleted strain FI7990 was sensitive to nisin at a concentration of between 250 and 500 U/ml compared to the parent strain, FI5876, which will continue growing in the presence of nisin to over 1000 U/ml.
# FI5876 = assay: as above; type: cell-based, L. lactis
# Experimental: as §1, §2
# FI7847 [nisA-(fs)] [7] = assay: as above; type: cell-based, L. lactis; conditions: nisin level tolerated by strain FI7847 nisA-(fs)
# Experimental: as §1, §2
# FI8003 (nisA) = assay: as above; type: cell-based, L. lactis; conditions: nisin level tolerated by strain FI8003 nisA (BamHI site in promoter)
# Experimental: as §1
# A possible explanation for the difference in nisin sensitivity of these two Nis^− strains came from gene replacement studies involving the vector pFI740 (FIG. 2d). […] The only difference between the two sequences involved is that pFI740 has an additional BamHI site incorporated 80 bp upstream of the ATG start codon of nisA, and a BglII site immediately downstream of the coding region (FIG. 4). […] A single base pair change introduced as a result of engineering the BamHI site has the effect of converting the -35 sequence from CTGATT to CCGATT (FIG. 4).
# FI7893 (nisA) = assay: as above; type: cell-based, L. lactis; conditions: nisin level tolerated by strain FI7893 nisA
# Experimental: as §1
# FI8198 (nisA/S33A) = assay: as above; type: cell-based, L. lactis; conditions: nisin level tolerated by strain FI8198 nisA/S33A
# Experimental: as §1
# FI8199 (nisA/S5A,S33A) = assay: as above; type: cell-based, L. lactis; conditions: nisin level tolerated by strain FI8199 nisA/S5A
# Experimental: as §1
# MG1614 = assay: as above; type: cell-based, L. lactis; conditions: nisin level tolerated by strain MG1614
# Experimental: as §1
# FI8070 (nisA/S5A) = assay: as above; type: cell-based, L. lactis; conditions: nisin level tolerated by strain FI8070 nisA/S5A
# Experimental: as §1
Molecule,"nisin activity (% of wild type), complementation [1]",MIC [2] [mg/L],"antimicrobial activity, plasmid-encoded gene complementing nisA deficiency [3]",Induction (FI7847 [nisA-(fs)] [4]; inducing agent at 100 ng ml^−1),Induction (FI7847 [nisA-(fs)] [4]; inducing agent at 1 mg ml^−1),antimicrobial activity against sensitive indicator strains [5],"Activity (% of wt) ([6]; antimicrobial activity in culture supernatants of gene-replaced strains, plate diffusion bioassays)","zone of inhibition / inhibitory effect compared with parent strain FI5876 ([6]; cell extracts of gene-replaced strains, plate diffusion bioassay)","nisin activity (% of wild type), gene replacement ([6]; plate diffusion bioassay, functional nisA gene incorporated in the chromosome of FI7990 in place of nisA deletion)",Immunity (FI7990 (ΔnisA)),Immunity (FI5876; nisin level tolerated by strain FI5876 (wild type)) [U/ml × 10^3],nisin concentration at which the strain continues growing (FI5876; parent strain FI5876),Immunity (FI7847 [nisA-(fs)] [7]),Immunity (FI8003 (nisA)),Immunity (FI7893 (nisA)) [U/ml × 10^3],Immunity (FI8198 (nisA/S33A)) [U/ml × 10^3],"Immunity (FI8199 (nisA/S5A,S33A)) [U/ml × 10^3]",Immunity (MG1614) [U/ml × 10^3],Immunity (FI8070 (nisA/S5A)) [U/ml × 10^3]
"C/C=C(\NC(=O)[C@@H](N)[C@@H](C)CC)C(=O)N[C@@H]1CSC[C@@H](C(=O)N[C@H]2C(=O)N3CCC[C@H]3C(=O)NCC(=O)N[C@H](C(=O)N[C@@H](CCCCN)C(=O)N[C@H]3C(=O)NCC(=O)N[C@@H](C)C(=O)N[C@@H](CC(C)C)C(=O)N[C@@H](CCSC)C(=O)NCC(=O)N[C@H](C(=O)N[C@@H](CC(N)=O)C(=O)N[C@@H](CCSC)C(=O)N[C@@H](CCCCN)C(=O)N[C@H]4C(=O)N[C@@H](C)C(=O)N[C@H]5C(=O)N[C@@H](CS[C@H]4C)C(=O)N[C@@H](Cc4c[nH]cn4)C(=O)N[C@H](C(=O)N[C@@H](CO)C(=O)N[C@H](C(=O)N[C@@H](Cc4c[nH]cn4)C(=O)N[C@H](C(=O)N[C@@H](C)C(=O)N[C@@H](CCCCN)C(=O)O)C(C)C)[C@@H](C)CC)CS[C@H]5C)CS[C@H]3C)CS[C@H]2C)NC(=O)[C@H](CC(C)C)NC(=O)[C@H](C)NC(=O)[C@H]([C@@H](C)CC)NC1=O [nisin A (Dha5A, Dha33A)]",<1^d % of wild type,1000,only detected in the more sensitive colony overlay assay,34,106,retained their antimicrobial activity,100 % of wt,equivalent that of nisin A containing the single mutation and also the wild type molecule,100 % of wild type,–,–,–,–,–,–,–,–,–,–
nisin,–,–,–,–,–,–,–,–,–,0.25-0.5 U/ml × 10^3,>1,over 1000 U/ml,0.5-0.75 U/ml × 10^3,0.25-0.5 U/ml × 10^3,>1,>1,>1,0.01,>1
